# According to PubChem BioAssay (NCI):
#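 Interpolation was linear, between the two tested concentrations surrounding the appropriate level; five concentrations were tested over 48 hours in 96-well plates. TGI denotes the concentration required for complete inhibition of growth.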
# How the values were obtained:
# Experiment in all cases: NCI tumour cell line growth inhibition, 48 h
# NCI-H522 lung = system: NCI-H522 lung
# IGROV1 ovarian = system: IGROV1 ovarian
# OVCAR-8 ovarian = system: OVCAR-8 ovarian
# A549 NSCLC = system: A549 NSCLC
# UACC-257 melanoma = system: UACC-257 melanoma
# MDA-MB-231 breast = system: MDA-MB-231 breast
# U251 CNS = system: U251 CNS
# SN12C renal = system: SN12C renal
# CCRF-CEM leukemia = system: CCRF-CEM leukemia
# HOP-62 NSCLC = system: HOP-62 NSCLC
# SK-MEL-28 melanoma = system: SK-MEL-28 melanoma
# HCC-2998 colon = system: HCC-2998 colon
# SK-MEL-5 melanoma = system: SK-MEL-5 melanoma
# EKVX NSCLC = system: EKVX NSCLC
# 786-0 renal = system: 786-0 renal
# OVCAR-4 ovarian = system: OVCAR-4 ovarian
# SNB-75 CNS = system: SNB-75 CNS
# RPMI-8226 leukemia = system: RPMI-8226 leukemia
# HL-60(TB) leukemia = system: HL-60(TB) leukemia
# NCI-H226 lung = system: NCI-H226 lung
# OVCAR-5 ovarian = system: OVCAR-5 ovarian
# BT-549 breast = system: BT-549 breast
# UO-31 renal = system: UO-31 renal
# HT29 colon = system: HT29 colon
# K-562 leukemia = system: K-562 leukemia
# NCI-H23 lung = system: NCI-H23 lung
# T-47D breast = system: T-47D breast
# TK-10 renal = system: TK-10 renal
# LOX IMVI melanoma = system: LOX IMVI melanoma
# DU-145 prostate = system: DU-145 prostate
# ACHN renal = system: ACHN renal
# SK-OV-3 ovarian = system: SK-OV-3 ovarian
# NCI/ADR-RES ovarian = system: NCI/ADR-RES ovarian
# HCT-15 colon = system: HCT-15 colon
# NCI-H460 lung = system: NCI-H460 lung
# CAKI-1 renal = system: CAKI-1 renal
# MCF7 breast = system: MCF7 breast
# MDA-MB-435 = system: MDA-MB-435
# SF-268 CNS = system: SF-268 CNS
# MOLT-4 leukemia = system: MOLT-4 leukemia
# MDA-N = system: MDA-N
# SF-539 CNS = system: SF-539 CNS
# A498 renal = system: A498 renal
# SF-295 CNS = system: SF-295 CNS
# RXF 393 renal = system: RXF 393 renal
# MALME-3M melanoma = system: MALME-3M melanoma
# UACC-62 melanoma = system: UACC-62 melanoma
# M14 melanoma = system: M14 melanoma
# SNB-19 CNS = system: SNB-19 CNS
# HOP-92 NSCLC = system: HOP-92 NSCLC
# SR leukemia = system: SR leukemia
# HS 578T breast = system: HS 578T breast
# HCT-116 colon = system: HCT-116 colon
# OVCAR-3 ovarian = system: OVCAR-3 ovarian
# SK-MEL-2 melanoma = system: SK-MEL-2 melanoma
# SW-620 colon = system: SW-620 colon
# COLO 205 colon = system: COLO 205 colon
# KM12 colon = system: KM12 colon
# PC-3 prostate = system: PC-3 prostate
compound,measurement,setting,value
COc1ccc(OC)c(-c2cc(=O)c3c(OC)c(OC)c(OC)c(OC)c3o2)c1,TGI,NCI-H522 lung,46.4 µM
same,TGI,IGROV1 ovarian,> 100 µM
same,TGI,OVCAR-8 ovarian,> 100 µM
same,TGI,A549 NSCLC,> 100 µM
same,TGI,UACC-257 melanoma,> 100 µM
same,TGI,MDA-MB-231 breast,> 100 µM
same,TGI,U251 CNS,> 100 µM
same,TGI,SN12C renal,> 100 µM
same,TGI,CCRF-CEM leukemia,> 100 µM
same,TGI,HOP-62 NSCLC,79.5 µM
same,TGI,SK-MEL-28 melanoma,> 100 µM
same,TGI,HCC-2998 colon,92.1 µM
same,TGI,SK-MEL-5 melanoma,39.1 µM
same,TGI,EKVX NSCLC,> 100 µM
same,TGI,786-0 renal,92.2 µM
same,TGI,OVCAR-4 ovarian,88.7 µM
same,TGI,SNB-75 CNS,> 100 µM
same,TGI,RPMI-8226 leukemia,76 µM
same,TGI,HL-60(TB) leukemia,> 100 µM
same,TGI,NCI-H226 lung,77.8 µM
same,TGI,OVCAR-5 ovarian,> 100 µM
same,TGI,BT-549 breast,> 100 µM
same,TGI,UO-31 renal,> 100 µM
same,TGI,HT29 colon,> 100 µM
same,TGI,K-562 leukemia,> 100 µM
same,TGI,NCI-H23 lung,> 100 µM
same,TGI,T-47D breast,21.3 µM
same,TGI,TK-10 renal,> 100 µM
same,TGI,LOX IMVI melanoma,76.1 µM
same,TGI,DU-145 prostate,> 100 µM
same,TGI,ACHN renal,71.3 µM
same,TGI,SK-OV-3 ovarian,98.7 µM
same,TGI,NCI/ADR-RES ovarian,82.8 µM
same,TGI,HCT-15 colon,77.5 µM
same,TGI,NCI-H460 lung,> 100 µM
same,TGI,CAKI-1 renal,> 100 µM
same,TGI,MCF7 breast,55.5 µM
same,TGI,MDA-MB-435,> 100 µM
same,TGI,SF-268 CNS,> 100 µM
same,TGI,MOLT-4 leukemia,63.2 µM
same,TGI,MDA-N,> 100 µM
same,TGI,SF-539 CNS,> 100 µM
same,TGI,A498 renal,> 100 µM
same,TGI,SF-295 CNS,48.4 µM
same,TGI,RXF 393 renal,77.7 µM
same,TGI,MALME-3M melanoma,> 100 µM
same,TGI,UACC-62 melanoma,64.3 µM
same,TGI,M14 melanoma,> 100 µM
same,TGI,SNB-19 CNS,> 100 µM
same,TGI,HOP-92 NSCLC,57.7 µM
same,TGI,SR leukemia,> 100 µM
same,TGI,HS 578T breast,> 100 µM
same,TGI,HCT-116 colon,> 100 µM
same,TGI,OVCAR-3 ovarian,75.3 µM
same,TGI,SK-MEL-2 melanoma,49.3 µM
same,TGI,SW-620 colon,> 100 µM
same,TGI,COLO 205 colon,31.6 µM
O=c1[nH]c(-n2[nH]c3c(c2=O)CCCC3)nc(O)c1-c1ccccc1,TGI,NCI-H522 lung,> 100 µM
same,TGI,IGROV1 ovarian,> 100 µM
same,TGI,OVCAR-8 ovarian,> 100 µM
same,TGI,UACC-257 melanoma,> 100 µM
same,TGI,MDA-MB-231 breast,> 100 µM
same,TGI,U251 CNS,> 100 µM
same,TGI,SN12C renal,> 100 µM
same,TGI,CCRF-CEM leukemia,> 100 µM
same,TGI,SK-MEL-28 melanoma,> 100 µM
same,TGI,SK-MEL-5 melanoma,> 100 µM
same,TGI,EKVX NSCLC,> 100 µM
same,TGI,786-0 renal,> 100 µM
same,TGI,OVCAR-4 ovarian,> 100 µM
same,TGI,RPMI-8226 leukemia,> 100 µM
same,TGI,HL-60(TB) leukemia,> 100 µM
same,TGI,NCI-H226 lung,> 100 µM
same,TGI,KM12 colon,> 100 µM
same,TGI,OVCAR-5 ovarian,> 100 µM
same,TGI,BT-549 breast,> 100 µM
same,TGI,UO-31 renal,> 100 µM
same,TGI,HT29 colon,> 100 µM
same,TGI,K-562 leukemia,> 100 µM
same,TGI,NCI-H23 lung,> 100 µM
same,TGI,T-47D breast,> 100 µM
same,TGI,TK-10 renal,> 100 µM
same,TGI,DU-145 prostate,> 100 µM
same,TGI,ACHN renal,> 100 µM
same,TGI,SK-OV-3 ovarian,> 100 µM
same,TGI,NCI/ADR-RES ovarian,> 100 µM
same,TGI,HCT-15 colon,> 100 µM
same,TGI,NCI-H460 lung,> 100 µM
same,TGI,CAKI-1 renal,> 100 µM
same,TGI,MDA-MB-435,> 100 µM
same,TGI,SF-268 CNS,> 100 µM
same,TGI,MOLT-4 leukemia,> 100 µM
same,TGI,MDA-N,> 100 µM
same,TGI,A498 renal,> 100 µM
same,TGI,SF-295 CNS,> 100 µM
same,TGI,RXF 393 renal,> 100 µM
same,TGI,MALME-3M melanoma,> 100 µM
same,TGI,UACC-62 melanoma,> 100 µM
same,TGI,M14 melanoma,> 100 µM
same,TGI,SNB-19 CNS,> 100 µM
same,TGI,HOP-92 NSCLC,> 100 µM
same,TGI,SR leukemia,> 100 µM
same,TGI,PC-3 prostate,> 100 µM
same,TGI,HS 578T breast,> 100 µM
same,TGI,HCT-116 colon,> 100 µM
same,TGI,SK-MEL-2 melanoma,> 100 µM
same,TGI,SW-620 colon,> 100 µM
same,TGI,COLO 205 colon,> 100 µM
